The test deals with T1, Rat Hepatic V1 Receptors (Rattus norvegicus, UniProt P30560).
T1 construct: Rat liver plasma membranes expressing the vasopressin V1 receptor subtypes; from tissue; host or cells: rat liver plasma membranes (sucrose density gradient)
The experiment in a line: Binding Assay to Rat Hepatic V1 Receptors. Conditions: rat hepatic V1 (no asterisk). The protocol: Binding Assay to Rat Hepatic V1 Receptors
Rat liver plasma membranes expressing the vasopressin V1 receptor subtypes are isolated by sucrose density gradient according to the method described by Lesko et al., (1973). These membranes are quickly suspended in 50.0 mM Tris.HCl buffer, pH 7.4, containing 0.2% bovine serum albumin (BSA) and 0.1 mM phenylmethylsulfonylfluoride (PMSF) and kept frozen at -70° C. until used in subsequent binding experiments. […]
For test compounds, these are solubilized in 50% dimethylsulfoxide (DMSO) and added in 20.0 μl volume to a final incubation volume of 200 μl. […] The radioactivity trapped on the filter disk by the ligand-receptor complex is assessed by liquid scintillation counting in a Packard LS Counter, with an efficiency of 65% for tritium. The data are analyzed for IC50 values by the LUNDON-2 program for competition (LUNDON SOFTWARE, Ohio).

T1 sequence (P30560 whole entry): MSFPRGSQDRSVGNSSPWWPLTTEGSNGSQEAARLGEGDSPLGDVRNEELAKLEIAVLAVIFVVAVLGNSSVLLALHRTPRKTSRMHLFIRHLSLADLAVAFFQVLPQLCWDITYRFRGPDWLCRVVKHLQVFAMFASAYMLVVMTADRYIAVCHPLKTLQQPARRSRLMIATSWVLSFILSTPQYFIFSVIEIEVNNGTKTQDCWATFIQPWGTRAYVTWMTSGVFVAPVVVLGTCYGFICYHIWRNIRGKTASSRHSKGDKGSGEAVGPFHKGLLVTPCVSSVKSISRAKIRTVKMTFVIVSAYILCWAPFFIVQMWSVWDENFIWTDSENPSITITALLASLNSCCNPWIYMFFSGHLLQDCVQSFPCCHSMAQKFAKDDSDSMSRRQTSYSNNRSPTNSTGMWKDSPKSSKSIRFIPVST

A word on the IC50: it is the midpoint of a concentration-inhibition curve. In the case of `O=C(c1ccc(-c2ccccn2)cc1)N1Cc2cccn2Cc2ccccc21` [Example 9, 10,11-Dihydro-10-[4-(2-pyridinyl)benzoyl]-5H-pyrrolo[2,1-c][1,4]benzodiazepine], the IC50 was found to be 0.4 µM.

Consider `O=C(c1ccc(-c2ccccc2C(F)(F)F)cc1)N1Cc2cccn2Cc2ccccc21` [Example 8], for which the IC50 stood at 0.67 µM. Compared with the last compound, the IC50 is about 1.7-fold higher.

The values are drawn from patent US5521173A, “Tricyclic benzazepine vasopressin antagonists” (American Home Products Corporation, priority 1995, dated 1996).
